We go through seven compounds from ChEMBL document CHEMBL5465560, “Selectivity Literature for EUbOPEN Chemogenomic Library” (2024).

In assay [1] the target is Tyrosine-protein kinase SYK (Homo sapiens, UniProt P43405). Briefly: Selectivity interaction (SelectScreen profiling (Invitrogen)) EUB0000607a SYK. As to conditions: at 2 µM.
The target of assay [2] is T1, Dual specificity mitogen-activated protein kinase kinase 3 (Homo sapiens) (UniProt P46734).
T1 sequence (whole entry): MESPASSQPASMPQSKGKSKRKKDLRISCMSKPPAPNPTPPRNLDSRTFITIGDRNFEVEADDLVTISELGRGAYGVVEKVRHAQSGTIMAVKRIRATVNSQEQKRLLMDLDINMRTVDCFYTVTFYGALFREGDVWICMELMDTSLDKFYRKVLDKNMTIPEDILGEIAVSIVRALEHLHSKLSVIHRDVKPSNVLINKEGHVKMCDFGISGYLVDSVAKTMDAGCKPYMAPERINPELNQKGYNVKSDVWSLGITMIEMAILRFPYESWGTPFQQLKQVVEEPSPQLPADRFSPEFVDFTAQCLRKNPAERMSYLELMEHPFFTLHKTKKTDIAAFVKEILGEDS
The following applies: at 10 µM.

In assay [3] the target is T2, Protein kinase C iota type (Homo sapiens) (UniProt P41743).
T2 sequence (whole entry): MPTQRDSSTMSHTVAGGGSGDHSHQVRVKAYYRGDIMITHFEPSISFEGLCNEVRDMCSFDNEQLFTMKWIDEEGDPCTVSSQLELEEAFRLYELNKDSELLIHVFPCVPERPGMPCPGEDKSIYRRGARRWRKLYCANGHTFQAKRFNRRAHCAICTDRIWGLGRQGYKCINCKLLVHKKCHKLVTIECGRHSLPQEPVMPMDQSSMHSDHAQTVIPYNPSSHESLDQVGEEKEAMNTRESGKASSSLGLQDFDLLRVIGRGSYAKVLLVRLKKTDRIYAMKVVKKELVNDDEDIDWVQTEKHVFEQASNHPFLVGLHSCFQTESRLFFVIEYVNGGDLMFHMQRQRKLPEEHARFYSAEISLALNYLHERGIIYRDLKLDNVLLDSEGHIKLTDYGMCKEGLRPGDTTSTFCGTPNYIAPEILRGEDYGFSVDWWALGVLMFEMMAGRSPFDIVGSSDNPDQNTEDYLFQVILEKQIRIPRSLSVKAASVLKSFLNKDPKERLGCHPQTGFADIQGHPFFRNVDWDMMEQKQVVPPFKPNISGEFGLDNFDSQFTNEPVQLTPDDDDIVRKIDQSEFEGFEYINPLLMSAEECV
Briefly: Selectivity interaction (KinomeScan (DiscoverX)) EUB0000666a PRKCI. As to conditions: at 10 µM.

Assay [4] concerns the target T3, Serine/threonine-protein kinase D1 (Homo sapiens) (UniProt Q15139).
T3 sequence (whole entry): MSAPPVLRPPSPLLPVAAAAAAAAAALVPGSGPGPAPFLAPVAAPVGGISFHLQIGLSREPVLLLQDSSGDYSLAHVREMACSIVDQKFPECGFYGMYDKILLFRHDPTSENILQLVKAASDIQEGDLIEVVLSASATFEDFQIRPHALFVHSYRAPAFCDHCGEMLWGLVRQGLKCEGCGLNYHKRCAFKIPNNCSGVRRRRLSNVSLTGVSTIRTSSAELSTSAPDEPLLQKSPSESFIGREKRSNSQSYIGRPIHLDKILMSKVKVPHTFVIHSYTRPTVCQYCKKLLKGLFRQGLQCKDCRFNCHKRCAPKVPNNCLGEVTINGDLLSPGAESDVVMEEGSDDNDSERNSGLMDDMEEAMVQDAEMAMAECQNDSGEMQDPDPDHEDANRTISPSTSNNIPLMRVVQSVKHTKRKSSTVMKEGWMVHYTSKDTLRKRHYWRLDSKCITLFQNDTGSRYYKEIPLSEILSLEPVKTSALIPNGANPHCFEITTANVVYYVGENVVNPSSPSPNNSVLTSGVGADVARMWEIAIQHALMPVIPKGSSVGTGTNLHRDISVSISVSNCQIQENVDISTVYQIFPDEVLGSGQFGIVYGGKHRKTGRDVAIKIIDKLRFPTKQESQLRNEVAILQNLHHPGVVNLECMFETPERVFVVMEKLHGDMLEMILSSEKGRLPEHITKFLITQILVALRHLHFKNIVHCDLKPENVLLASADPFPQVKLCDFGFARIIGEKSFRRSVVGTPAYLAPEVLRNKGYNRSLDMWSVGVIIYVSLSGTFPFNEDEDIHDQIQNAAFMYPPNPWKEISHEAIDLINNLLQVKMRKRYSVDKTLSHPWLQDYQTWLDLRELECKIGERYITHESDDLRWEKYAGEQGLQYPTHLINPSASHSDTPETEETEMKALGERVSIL
Briefly: Selectivity interaction (KinomeScan (DiscoverX)) EUB0000655a PRKD1. As to conditions: at 10 µM.

Assay [5] deals with SRSF protein kinase 3 (Homo sapiens) (UniProt Q9UPE1). Briefly: Selectivity interaction (KinomeScan (DiscoverX)) EUB0001079a SRPK3. The following applies: at 1 µM.
Chain of SRSF protein kinase 3 (Homo sapiens) (Q9UPE1 whole entry): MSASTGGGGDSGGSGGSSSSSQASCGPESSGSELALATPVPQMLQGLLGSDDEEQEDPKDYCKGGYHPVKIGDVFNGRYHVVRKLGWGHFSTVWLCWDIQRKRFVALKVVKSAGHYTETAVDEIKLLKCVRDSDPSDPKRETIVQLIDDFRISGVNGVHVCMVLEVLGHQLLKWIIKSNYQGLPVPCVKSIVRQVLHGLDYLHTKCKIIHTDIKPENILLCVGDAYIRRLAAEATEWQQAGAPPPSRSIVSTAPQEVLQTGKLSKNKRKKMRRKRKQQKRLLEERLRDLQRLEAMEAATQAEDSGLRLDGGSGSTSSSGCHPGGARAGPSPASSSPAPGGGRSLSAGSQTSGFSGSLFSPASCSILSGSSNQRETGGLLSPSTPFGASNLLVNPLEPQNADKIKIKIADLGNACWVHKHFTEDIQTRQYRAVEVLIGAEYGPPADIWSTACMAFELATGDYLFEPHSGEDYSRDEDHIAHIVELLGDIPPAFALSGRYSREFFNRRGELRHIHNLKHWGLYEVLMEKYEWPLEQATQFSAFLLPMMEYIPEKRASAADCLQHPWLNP
The target in assay [6] is Sodium-dependent serotonin transporter (Homo sapiens, UniProt P31645). Briefly: Selectivity interaction (GPCR panel (PDSP screen)) EUB0001079a SLC6A4. The following applies: at 10 µM.
Chain of Sodium-dependent serotonin transporter (P31645 whole entry, looked up, canonical isoform): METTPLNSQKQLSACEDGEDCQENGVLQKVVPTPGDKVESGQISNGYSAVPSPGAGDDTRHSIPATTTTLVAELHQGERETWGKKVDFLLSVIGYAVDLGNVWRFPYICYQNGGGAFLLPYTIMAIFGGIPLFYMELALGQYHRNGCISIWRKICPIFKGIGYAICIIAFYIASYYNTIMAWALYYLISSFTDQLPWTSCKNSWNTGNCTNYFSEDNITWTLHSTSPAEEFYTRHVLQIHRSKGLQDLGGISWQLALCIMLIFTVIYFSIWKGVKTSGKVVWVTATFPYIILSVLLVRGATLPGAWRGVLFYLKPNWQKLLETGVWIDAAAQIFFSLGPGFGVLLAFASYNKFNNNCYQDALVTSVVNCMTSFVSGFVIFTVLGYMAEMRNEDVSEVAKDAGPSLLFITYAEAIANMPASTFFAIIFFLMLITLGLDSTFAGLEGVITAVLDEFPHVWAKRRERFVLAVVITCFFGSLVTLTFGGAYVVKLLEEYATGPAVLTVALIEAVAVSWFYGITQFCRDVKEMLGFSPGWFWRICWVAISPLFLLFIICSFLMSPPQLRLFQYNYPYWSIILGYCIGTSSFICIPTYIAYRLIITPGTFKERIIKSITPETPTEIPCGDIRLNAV
Assay [7] concerns the target Casein kinase I isoform alpha (Homo sapiens, UniProt P48729). Briefly: Selectivity interaction (Enzymatic assay) EUB0001199aCl CSNK1A1.
The target in assay [8] is T4, Inhibitor of nuclear factor kappa-B kinase subunit epsilon (Homo sapiens) (UniProt Q14164).
T4 sequence (whole entry): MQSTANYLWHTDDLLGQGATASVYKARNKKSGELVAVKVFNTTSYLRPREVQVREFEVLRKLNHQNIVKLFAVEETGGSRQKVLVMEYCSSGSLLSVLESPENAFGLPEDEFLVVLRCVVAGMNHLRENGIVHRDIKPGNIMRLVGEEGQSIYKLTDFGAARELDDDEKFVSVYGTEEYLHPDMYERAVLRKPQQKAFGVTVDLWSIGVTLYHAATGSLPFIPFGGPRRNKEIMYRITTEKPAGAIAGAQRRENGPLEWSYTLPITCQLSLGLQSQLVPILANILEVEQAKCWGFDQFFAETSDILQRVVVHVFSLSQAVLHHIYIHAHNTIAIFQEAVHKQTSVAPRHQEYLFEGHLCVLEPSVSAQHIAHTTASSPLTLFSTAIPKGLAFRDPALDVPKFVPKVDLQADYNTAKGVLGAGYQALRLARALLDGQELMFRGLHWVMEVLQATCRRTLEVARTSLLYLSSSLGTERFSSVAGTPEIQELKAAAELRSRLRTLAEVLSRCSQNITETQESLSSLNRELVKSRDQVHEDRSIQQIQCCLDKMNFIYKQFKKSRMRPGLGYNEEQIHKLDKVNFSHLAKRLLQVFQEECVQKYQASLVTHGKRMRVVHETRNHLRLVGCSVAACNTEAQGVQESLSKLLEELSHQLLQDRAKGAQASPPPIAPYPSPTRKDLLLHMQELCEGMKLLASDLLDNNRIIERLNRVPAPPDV
Briefly: Selectivity interaction (KinomeScan (DiscoverX)) EUB0000595a IKBKE. As to conditions: at 10 µM.

For assay [9], the target named is Cyclin-dependent kinase 5 (Homo sapiens, UniProt Q00535). Briefly: Selectivity interaction (KinomeScan (DiscoverX)) EUB0000595a CDK5. As to conditions: at 10 µM.
Chain of Cyclin-dependent kinase 5 (Q00535 whole entry, looked up): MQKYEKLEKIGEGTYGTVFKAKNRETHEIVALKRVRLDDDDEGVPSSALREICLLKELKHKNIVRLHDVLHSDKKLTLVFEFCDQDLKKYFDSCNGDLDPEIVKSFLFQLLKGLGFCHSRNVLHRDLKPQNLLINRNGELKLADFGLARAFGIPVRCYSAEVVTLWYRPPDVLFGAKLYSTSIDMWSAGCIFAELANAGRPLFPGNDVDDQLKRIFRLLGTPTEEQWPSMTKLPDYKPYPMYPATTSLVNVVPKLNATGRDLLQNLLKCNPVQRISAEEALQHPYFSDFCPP

Chain of Casein kinase I isoform alpha (P48729 whole entry, canonical isoform): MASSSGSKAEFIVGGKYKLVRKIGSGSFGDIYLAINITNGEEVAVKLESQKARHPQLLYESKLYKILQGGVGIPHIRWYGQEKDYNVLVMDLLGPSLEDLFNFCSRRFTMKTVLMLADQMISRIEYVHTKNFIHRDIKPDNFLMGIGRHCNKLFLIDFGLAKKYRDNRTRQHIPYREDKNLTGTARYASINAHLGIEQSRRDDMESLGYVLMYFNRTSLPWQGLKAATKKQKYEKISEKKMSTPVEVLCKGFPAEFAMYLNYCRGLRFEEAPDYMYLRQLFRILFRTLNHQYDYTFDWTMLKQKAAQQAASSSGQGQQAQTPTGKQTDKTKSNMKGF

For `CNC(=O)Nc1ccc(-c2nc(N3CC4CCC(C3)O4)c3cnn(C4CCC5(CC4)OCCO5)c3n2)cc1`, in assay [1], the % of inhibition is 1%.
As to `Cc1cc([C@@H](C)Nc2ccccc2C(=O)O)c2nc(N3CCOCC3)cc(=O)n2c1` [AZD-6482], the % of control in [2] is 100%.
In the case of `O=C(NOC[C@H](O)CO)c1ccc(F)c(F)c1Nc1ccc(I)cc1F`, in [3], the % of control came to 70%.
On to `CN(C)CCOc1ccc(-c2nc(-c3ccncc3)c(-c3ccc4c(c3)CC/C4=N\O)[nH]2)cc1`, for which, in assay [4], the % of control came out at 3.8%.
`Nc1cnc(N2CCc3cc(S(=O)(=O)Nc4c(F)cc(Cl)cc4F)cc(N4CCCC4=O)c32)nc1` [TP-020n] showed a % of control in assay [5] of 100%. The compound also had a % of inhibition in assay [6] of 9.34%.
Usually IC50 stands for the concentration that inhibits the measured activity by half. In the case of `CN1Cc2nccc(-c3cn(C)nc3-c3ccc(F)cc3)c2C1=O`, the 50% inhibitory concentration (IC50) in [7] came out at 630 nM.
Take `COCC(=O)NC/C=C/c1ccc2ncnc(Nc3ccc(Oc4ccc(C)nc4)c(C)c3)c2c1` [CP-724714]: the % of control in assay [8] and in assay [9] was 100% each time.
